# Test results: publication PMC7285002, “Enhanced Oral Bioavailability of the Pharmacologically Active Lignin Magnolol via Zr-Based Metal Organic Framework Impregnation” (Pharmaceutics, 2020)
# Like-named read-outs stand apart in the source and are kept apart here.
# Experiments:
# [1] = Oral bioavailability / pharmacokinetic study (serum magnolol by HPLC); type: in vivo; conditions: Sprague-Dawley (SD), rat, 100 mg kg^−1, male SD rats; for AUC(0-t): read-out: AUC0–720 (converted); for half-life: male, 100 mg/kg
# Procedure: (§1) The determination of the bioavailability of magnolol and its tissue distribution to the brain, liver, and kidney was done according to the method of Ding et al. (2018), Higashi (2015), Lin et al. (2011), and Kotani et al. (2005).
# For the pharmacokinetic study, male SD rats were randomly divided into 4 groups (n = 3). […] Blood samples (approximately 200 to 250 µL) were collected at predetermined time points (15, 30, 60, 120, 180, 240, 480, and 720 min) and allowed to clot and centrifuged at 4000 rpm at 4 °C for 5 min to obtain the serum. The obtained sera were treated with equal amount of acetonitrile and then centrifuged again to obtain the protein-free sera.
# (§2) Samples were reconstituted with acetonitrile prior to HPLC analysis. The samples were injected into the HPLC (n = 3). The quantity of magnolol was computed using a standard calibration curve.
# [2] = Tissue distribution of unconjugated magnolol; type: in vivo; conditions: Sprague-Dawley (SD), rat, 1 h after oral 50 mg kg^−1, male SD rats
# Procedure: as §1
# After one hour of administration, the animals were euthanized in a carbon dioxide chamber and their organs (brain, liver, and kidney) were collected. The organs were weighed and homogenized in 10 mL of acetonitrile, and centrifuged at 10,000 rpm for 10 min. The supernatant was dried under reduced pressure.
# as §2
# [3] = low bioavailability of magnolol, stated in the abstract without reference; cited from earlier work
# [4] = test system: female Sprague Dawley rats; test: Acute oral toxicity (OECD 425, limit test); type: in vivo
# Procedure: Animal toxicity test was done in accordance with the Organization for Economic Cooperation and Development guidelines for testing chemical compounds using the up and down method (OECD procedure 425). Prior to dosing, 2 mL of blood was extracted through tail clipping and was submitted for alanine aminotransferase (ALT) and creatinine level determinations for signs of liver and kidney damages, respectively. […] In cases where the first animal survived, an additional four rats were subjected to the same dose. […] An additional rat was administered with the solvent only to compare the variation in the animal species. Test animals that survived in the 14-day observation were euthanized in a carbon dioxide chamber followed by the harvesting of blood, liver and kidney of all test animals. The blood was once again submitted for ALT and creatinine level determination. The organs were submitted for tissue mounting and histopathological evaluation.
smiles,measurement,setting,value
"C=CCc1ccc(O)c(-c2cc(CC=C)ccc2O)c1 [Magnolol, 4-Allyl-2-(5-allyl-2-hydroxy-phenyl)phenol]",AUC(0-inf),[1]; IP (intraperitoneal route),66900 ng·h/mL
same,Cmax,[1]; IP (intraperitoneal route),5100 ± 650 ng/mL
same,Tmax,[1]; IP (intraperitoneal route),64.1 min
same,AUC(0-t),[1]; IP (intraperitoneal route),43000 ng·h/mL
same,AUC(0-inf),[1]; PO (oral route),15100 ng·h/mL
same,Cmax,[1]; PO (oral route),2570 ± 260 ng/mL
same,Tmax,[1]; PO (oral route),55.8 min
same,AUC(0-t),[1]; PO (oral route),13700 ng·h/mL
same,half-life,"[1]; ip, IP (intraperitoneal route), read-out: Abs T1/2 (absorption half-life)",17.1 ± 3.63 min
same,half-life,"[1]; ip, IP (intraperitoneal route), read-out: T1/2 (elimination half-life)",461 ± 37.4 min
same,half-life,"[1]; po, PO (oral route), read-out: Abs T1/2 (absorption half-life)",23.3 ± 3.16 min
same,half-life,"[1]; po, PO (oral route), read-out: T1/2 (elimination half-life)",100 ± 20.4 min
same,concentration at 1 h,"[2]; brain, read-out: mean magnolol concentration, Brain",374 ± 22 ng/g
same,concentration at 1 h,"[2]; kidney, read-out: mean magnolol concentration, Kidneys",3740 ± 890 ng/g
same,concentration at 1 h,"[2]; liver, read-out: mean magnolol concentration, Liver",790 ± 180 ng/g
same,bioavailability,[3],4–5%
same,survival after limit dose,"[4]; 2000 mg kg^−1 oral, female SD rats, 14 days",All test animals survived
same,"mean serum ALT level, before vs after administration","[4]; 2000 mg kg^−1 oral, paired t-test",no significant difference
same,median lethal dose (LD50),"[4]; oral gavage, female SD rats, 14-day observation, assumed from limit test",greater than 2000 mg kg^−1
